Experimental findings from ChEMBL document CHEMBL1926640, “Structure-based rational design of novel hit compounds for pyruvate dehydrogenase multienzyme complex E1 components from Escherichia coli” (Bioorg Med Chem, 2011) are described below.

In general, IC50 refers to the point on the concentration scale where inhibition reaches its midpoint. Read a high IC50 as lower potency.

This experiment in a line: Inhibition of Escherichia coli PDHc-E1 expressed in Escherichia coli TB1 using sodium pyruvate as substrate after 3 mins by 2,6-DCIP reduction assay.
Compound `Cc1ncc(Cn2cc(COc3ccc([N+](=O)[O-])cc3Cl)nn2)c(N)n1` came in with an IC50 of 6.88 µM.

For `Cc1ncc(Cn2cc(COc3ccc([N+](=O)[O-])cc3)nn2)c(N)n1`, the midpoint of inhibition, the IC50, lay at 8.8 µM.

On to `Cc1ncc(Cn2cc(COc3ccc(C(=O)O)cc3)nn2)c(N)n1`, for which the 50% inhibitory concentration (IC50) is 15.1 µM.

Compound `Cc1ncc(Cn2cc(COc3ccccc3)nn2)c(N)n1` came in with a half-inhibitory concentration (IC50) of 55.1 µM. This IC50 is about 3.6-fold higher than that of the compound before.
